Columns and labels:
Type in all cases: cell-based, human
[1] = system: colonic epithelial T84 cells (calcium-mediated chloride ion secretion); assay: Inhibition of calcium-mediated chloride ion secretion (Table I summary)
How it was run: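 T84 monolayers (passages 18-48, 7-10 days on permeable supports) preincubated with 100, 200 or 400 μM Bt2-Ins(3,4,5,6)P4/AM for 30 min before Ussing-chamber mounting. After another 30 min, 0.1 mM histamine added; chloride secretion recorded as voltage-clamped short circuit current (Isc).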

[2] = system: T84 cells (carbachol-stimulated chloride ion secretion); assay: Carbachol-stimulated (calcium-mediated) chloride ion secretion in T84 cells
Protocol: The cell permeable derivative D,L-Bt3 -Ins(1,3,4)P3 /AM was synthesized. Colonic epithelial T84 cells were preincubated for 30 min with 400 μM D,L-Bt3 -Ins(1,3,4)P3 /AM prior to mounting in Ussing chambers and measuring ΔIsc. At 10 min, carbachol (10^-4 M) was added to transiently stimulate calcium-mediated chloride ion secretion. Data were the average of 8 experiments with p<0.04, unpaired, two-sided student's t-test. […]

Ins(3,4,5,6)P4 = assay: Intracellular Ins(3,4,5,6)P4 level in (3H)-inositol labeled T84 cells; settings: 400 μM D,L-Bt3 -Ins(1,3,4)P3 /AM
intracellular calcium = assay: Intracellular calcium concentration in treated cells
Protocol: Elevation in intracellular calcium concentration leads to increased chloride ion secretion. To ensure that none of the effects of the inositol polyphosphate derivatives on chloride ion secretion were due to changes in calcium levels, the concentration of intracellular calcium was measured in cells treated with the inositol polyphosphate derivatives. […] None of the compounds tested altered intracellular calcium levels by themselves or modified levels of intracellular calcium stimulated with carbachol or thapsigargin. Therefore, the effects of inositol polyphosphate derivatives on chloride ion secretion are not due to any effect on intracellular calcium concentrations.

[3] = system: T84 cells (PtdInsP3-mediated decrease in chloride ion secretion); assay: Reversal of PtdInsP3-mediated decrease in chloride ion secretion in T84 cells; settings: FIG. 7d, 7e
Protocol: T84 cells also were preincubated with cell permeable Ins(1,4,5,6)P4 derivatives to determine whether Ins(1,4,5,6)P4 can reverse PtdInsP3 -mediated decreases in chloride ion secretion.

[4] = system: T84 cells (histamine-stimulated chloride ion secretion); assay: Histamine-stimulated chloride ion secretion (short circuit current) in T84 monolayers
Protocol: Enantiomerically pure 1,2-Bt2 -Ins(3,4,5,6)P4 /AM was synthesized to determine if 1,2-Bt2 -Ins(3,4,5,6)P4 /AM mediates the uncoupling of chloride ion secretion from intracellular calcium concentrations. […] After 7-10 days of incubation on SNAP-WELLS (Corning Costar; Cambridge, Mass.), monolayers had formed tight junctions. Cell monolayers were preincubated with 100, 200 or 400 μM Bt2 -Ins(3,4,5,6)P4 /AM for 30 min prior to mounting. After an additional 30 min, 0.1 mM histamine was added and chloride ion secretion was monitored. Chloride ion secretion was measured as short circuit current (Isc) across T84 monolayers grown to confluence and mounted in Ussing chambers equipped with voltage clamps (Physiologic Instruments; San Diego, Calif.). Data was acquired and analyzed using "Acquire and Analyze" software (Physiologic Instruments).
Initial studies were directed towards understanding structural determinants of Ins(3,4,5,6)P4 responsible for the inhibitory effect on calcium-mediated chloride ion secretion. A series of cell permeable inositol polyphosphate derivatives were synthesized. These derivatives contained either one or two non-hydrolyzable chemical groups on the 1, 2 or 3 position. T84 monolayers were preincubated for 30 minutes with 200 μM of 2-Bt-1-Me-Ins(3,4,5,6)P4 /AM, Me2 -Ins(3,4,5,6)P4 /AM, Me2 -Ins(1,4,5,6)P4 /AM or 2-Bt-3-Me-Ins(1,4,5,6)P4 /AM.
Following the incubation, cells were mounted in Ussing chambers. Calcium-mediated chloride ion secretion was stimulated with histamine (10^-4 M). Control values were the response to histamine in coincubated monolayers. Data are represented as mean peak ΔIsc ±SEM, expressed as % control for 8 to 10 experiments. Significant differences were identified using the Student's two-tailed t test.

[5] = system: T84 cells (EGF inhibition of cyclic AMP-mediated chloride ion secretion); assay: EGF inhibition of cyclic AMP-mediated chloride ion secretion, reversal
[6] = system: T84 cells (EGF induced inhibition of chloride ion secretion); assay: EGF induced inhibition of carbachol-stimulated chloride ion secretion in T84 cells and its reversal; settings: EGF 16.3 nM, carbachol 100 μM
Protocol: After an additional 15 min incubation, 100 μM carbachol was added to acutely elevate intracellular calcium concentrations. Controls also were stimulated with carbachol but were not pretreated with EGF. Data are the means of duplicate measurements from a representative experiment (total of three experiments).

CCCC(=O)O[C@@H]1[C@@H](OC(=O)CCC)[C@H](OP(=O)(OCOC(C)=O)OCOC(C)=O)[C@@H](OP(=O)(OCOC(C)=O)OCOC(C)=O)[C@@H](OC(=O)CCC)[C@H]1OP(=O)(OCOC(C)=O)OCOC(C)=O (relative stereo) [D,L-Bt3 -Ins(1,3,4)P3 /AM, D,L-2,5,6-tri-O-butyryl-myo-inositol 1,3,4-trisphosphate hex (acetoxymethyl) ester]
Mechanism and Inositol Polyphosphate Pathway Affected ([1]; pathway: Ins (3,4,5,6)P4): Agonist of | peak ΔIsc ([2]; 400 μM, 30 min preincubation, carbachol 10^-4 M, 8 experiments, control 15.2±2.8, p<0.04): 7.9±1.6 | inhibition at 400 µM ([2]; Homo sapiens, 0.5 h, 400 μM D,L-Bt3 -Ins(1,3,4)P3 /AM, read-out: decrease of calcium-mediated chloride ion secretion): ~50% | effect on carbachol-stimulated / calcium-mediated chloride ion secretion (in words) ([2]; T84 cells, preincubation): inhibits calcium-mediated chloride ion secretion | increase in Ins(3,4,5,6)P4 (Ins(3,4,5,6)P4): three-fold increase

CCCC(=O)O[C@@H]1[C@H](OC(=O)CCC)[C@@H](OP(=O)(OCOC(C)=O)OCOC(C)=O)[C@H](OP(=O)(OCOC(C)=O)OCOC(C)=O)[C@@H](OP(=O)(OCOC(C)=O)OCOC(C)=O)[C@@H]1OP(=O)(OCOC(C)=O)OCOC(C)=O [Bt2 -Ins(1,4,5,6)P4 /AM, 2,3-di-O butyryl-myo-inositol 1,4,5,6-TKphosphate oct (acetoxymethyl) ester]
effect on intracellular calcium (in words) (intracellular calcium; alone): did not elevate intracellular calcium | effect on calcium response to thapsigargin or carbachol (in words) (intracellular calcium; thapsigargin or carbachol stimulated): did not elevate intracellular calcium or the calcium response to thapsigargin | effect on PtdInsP3-mediated decrease in chloride ion secretion (in words) [3]: enhances chloride ion secretion | Mechanism and Inositol Polyphosphate Pathway Affected ([1]; pathway: PtdInsP3): Antagonist of | activity at 400 µM ([4]; Homo sapiens, T84, 0.5 h, 400 μM compound alone, mean ± SEM, read-out: Peak ΔIsc (% Control) after histamine (100 μM)): 138 ± 20.7% | effect on histamine-stimulated / calcium-mediated chloride ion secretion (in words) ([4]; T84 cells): did not inhibit chloride ion secretion and in fact led to a slight increase in chloride ion secretion | reversal of EGF inhibition of cyclic AMP-mediated chloride ion secretion (in words) [5]: did not reverse EGF inhibition of cyclic AMP-mediated chloride ion secretion | effect on carbachol-stimulated chloride ion secretion / EGF induced inhibition (in words) [6]: enhances chloride ion secretion | effect on carbachol-stimulated chloride ion secretion / EGF induced inhibition (in words) ([6]; listed as Bt2 Ins(1,4,5,6)P4 /AM): significantly reversed EGF induced inhibition of chloride ion secretion
